The source of these data is patent US20090105349A1, “ANDROGEN MODULATORS” (WARNER-LAMBERT COMPANY LLC, priority 2004, published 2009).

Structures are written as SMILES. Where a chain is given by its changes, count along the chain named. Like-named read-outs stand apart in the source and are kept apart here. Bounds are passed on as bounds.

The target in test [1] is T1, hAR (human androgen receptor) (Homo sapiens, UniProt P10275).
T1 construct: made in house; host or cells: baculovirus/Sf9 insect cells (crude extract)
T1 sequence (P10275 1-920): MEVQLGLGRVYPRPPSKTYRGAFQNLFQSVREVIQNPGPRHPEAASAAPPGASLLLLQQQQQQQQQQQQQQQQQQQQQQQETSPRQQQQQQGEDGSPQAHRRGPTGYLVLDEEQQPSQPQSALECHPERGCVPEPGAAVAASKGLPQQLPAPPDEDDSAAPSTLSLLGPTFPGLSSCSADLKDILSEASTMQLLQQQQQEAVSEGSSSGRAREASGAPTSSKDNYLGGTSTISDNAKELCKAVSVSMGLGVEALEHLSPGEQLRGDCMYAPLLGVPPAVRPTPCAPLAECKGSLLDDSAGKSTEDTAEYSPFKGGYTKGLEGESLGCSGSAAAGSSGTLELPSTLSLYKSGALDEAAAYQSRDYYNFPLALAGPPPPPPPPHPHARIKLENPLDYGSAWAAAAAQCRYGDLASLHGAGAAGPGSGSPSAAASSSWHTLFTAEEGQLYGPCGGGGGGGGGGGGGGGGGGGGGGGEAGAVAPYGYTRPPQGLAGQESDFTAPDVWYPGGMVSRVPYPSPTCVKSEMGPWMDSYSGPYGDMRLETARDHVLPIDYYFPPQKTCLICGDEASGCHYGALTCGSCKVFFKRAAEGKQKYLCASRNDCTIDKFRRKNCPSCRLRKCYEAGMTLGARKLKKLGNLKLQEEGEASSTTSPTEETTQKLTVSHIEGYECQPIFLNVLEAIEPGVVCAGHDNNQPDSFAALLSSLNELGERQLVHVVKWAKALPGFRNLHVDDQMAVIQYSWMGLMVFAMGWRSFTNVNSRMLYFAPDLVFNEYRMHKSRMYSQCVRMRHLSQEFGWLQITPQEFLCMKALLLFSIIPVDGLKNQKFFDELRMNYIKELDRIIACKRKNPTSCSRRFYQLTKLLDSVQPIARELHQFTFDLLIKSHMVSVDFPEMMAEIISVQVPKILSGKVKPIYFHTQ
Nature of the test: Competitive hAR binding assay with 3H-DHT tracer. The protocol:
The description below describes how the assay was carried out.
Competitive binding analysis was performed on baculovirus/Sf9 generated hAR extracts in the presence or absence of different concentrations of test agent and a fixed concentration of ^3H-dihydrotestosterone (3H-DHT) as tracer. […] Subsequently, the binding reactions are washed three times to completely remove excess unbound ^3H-DHT. hAR bound ^3H-DHT levels are determined in the presence of compounds (i.e. competitive binding) and compared to levels bound when no competitor is present (i.e. maximum binding). Compound binding affinity to the hAR is expressed as the concentration of compound at which one half of the maximum binding is inhibited.

Test [2] addresses T2, androgen receptor in MDA-MB453-MMTV clone 54-19 cells (Homo sapiens, UniProt P10275).
T2 sequence (P10275 1-920 Q868H): T1 sequence (P10275 1-920) with Q868H
Nature of the test: AR antagonist cell assay (MMTV-luciferase reporter). It is filed as cell-based. As to the method: The compounds ability to antagonize the effects of androgen on the androgen receptor were determined in a whole cell assay as described immediately below.
This cell line is a stable transfected cell line with MDA-MB453 cell background (a human breast tumor cell line expressing androgen receptor). A MMTV minimal promoter containing ARE was first cloned in front of a firefly luciferase reporter gene. Then the cascade was cloned into transfection vector pUV120puro. […] Puromycin resistant stable cell line was selected.
Plating medium: DMEM (phenol red free), 10% charcoal treated HyClone serum, 1% L-glutamine
Assay medium: DMEM (phenol red free), 1% charcoal treated HyClone serum, 1% L-glutamine, and 1% penicillin/streptomycin
Assay procedure: • 1. Cells are maintained in culture medium, splitting cells when they reach 80-90% confluence • 2. To test compounds, 10,000 cells/well are plated to opaque 96 cell culture plate in 100 ul/well plating medium, culture for overnight at 37° C. in cell culture incubator • 3. […] Add 10 ul/well freshly prepared DHT (final concentration at […]) to each well, incubate at 37° C. for 17 hr (overnight) • 5.
The results are reported as the mean of multiple tests as described below (the numbers of tests are indicated in the footnote). N.D. denotes that the compound was not tested.

The mark [3] stands for this setting: MDA-MB453-MMTV clone 54-19, inhibition of DHT induced luciferase, 17 hr; mean of multiple tests; read-out: AR Cell IC50.
The mark [4] stands for this setting: baculovirus/Sf9 hAR extract, 1 nM 3H-DHT, one hour at 4° C, mean of multiple tests, read-out: AR Binding IC50.
Where [5] appears, read: read-out: AR Cell IC50; MDA-MB453-MMTV clone 54-19, inhibition of DHT induced luciferase, 17 hr; mean of multiple tests.

One may read the IC50 as the point on the concentration scale where inhibition reaches its midpoint. In the case of `CCc1ccccc1Oc1ccc(C#N)c(Cl)c1` [Example 35, 2-Chloro-4-(2-ethyl-phenoxy)-benzonitrile], the IC50 in test [1] was 20 nM; in test [2] (setting [3]) it was 360 nM.
As to `N#Cc1ccc(Oc2ccc(C#N)c(C(F)(F)F)c2)cc1C#N` [Example 100, 4-(4-Cyano-3-trifluoromethyl-phenoxy)-phthalonitrile], the IC50 in test [1] (setting [4]) was 173 nM; in test [2] (setting [3]), 822 nM.
`CCC(C)c1ccccc1Oc1ccc(C#N)c(Cl)c1` (stereo not shown) [Example 48, 4-(2-sec-Butyl-phenoxy)-2-chloro-benzonitrile]: the figures for the IC50 in test [1] (setting [4]) and in test [2] (setting [3]) were 184 nM and over 1000 nM, respectively.
On the same counts, the results for `CC(O)c1cc(F)ccc1Oc1ccc(C#N)c(C(F)(F)F)c1` (stereo not shown) [Example 119, 4-[4-Fluoro-2-(1-hydroxy-ethyl)-phenoxy]-2-trifluoromethyl-benzonitrile] are 279 nM and 458 nM.
On the same counts, the results for `CSc1ccc(Oc2ccc(C#N)c(Cl)c2)c(C)c1` [Example 59, 2-Chloro-4-(2-methyl-4-methylsulfanyl-phenoxy)-benzonitrile] are 268 nM and 175 nM.
On the same counts, the results for `CCCc1ccccc1Oc1ccc(C#N)cc1Cl` [Example 17, 3-Chloro-4-(2-propyl-phenoxy)-benzonitrile] are 102 nM and 861 nM.
As to `Cc1cccc(C)c1Oc1ccc(C#N)cc1Cl` [Example 16, 3-Chloro-4-(2,,6-dimethyl-phenoxy)-benzonitrile], the IC50 in test [1] was 16 nM; in test [2] (setting [3]), 161 nM.
Consider `N#Cc1ccc(Oc2ccc(F)cc2F)cc1C(F)(F)F` [Example 115, 4-(2,4-Difluoro-phenoxy)-2-trifluoromethyl-benzonitrile], for which the IC50 in test [1] was 128 nM; in test [2] (setting [5]) it was 56 nM.
For the compound `COc1cccc(OC)c1Oc1ccc(C#N)cc1Cl` [Example 26, 3-Chloro-4-(2,6-dimethoxy-phenoxy)-benzonitrile], the IC50 in test [1] (setting [4]) turned out to be 106 nM; in test [2] (setting [5]), 54 nM.
For `COc1ccc(C)cc1Oc1ccc(C#N)c(Cl)c1` [Example 33, 2-Chloro-4-(2-methoxy-5-methyl-phenoxy)-benzonitrile], the IC50 is 232 nM in test [1] (setting [4]) and 42 nM in test [2] (setting [5]).
With `N#CCCc1ccc(Oc2ccc(C#N)c(Cl)c2)cc1` [Example 46, 2-Chloro-4-[4-(2-cyano-ethyl)-phenoxy]-benzonitrile], the IC50 in test [1] (setting [4]) worked out at 304 nM; in test [2] (setting [3]) it was 197 nM.
On to `N#Cc1ccc(Oc2cccc3ccccc23)cc1C(F)(F)F` [Example 97, 4-(Naphthalen-1-yloxy)-2-trifluoromethyl-benzonitrile], for which the IC50 amounted to 100 nM in test [1] and 554 nM in test [2] (setting [3]).
As to `N#Cc1ccc(Oc2ccccc2C#N)cc1Cl` [Example 65, 2-Chloro-(2-cyano-phenoxy)-benzonitrile], the IC50 stood at 14 nM in test [1] and 0.32 nM in test [2] (setting [5]).
For the compound `Cc1ccc(Oc2ccc(C#N)c(C(F)(F)F)c2)c(C)c1` [Example 99, 4-(2,4-Dimethyl-phenoxy)-2-trifluoromethyl-benzonitrile], the figures for the half-maximal inhibitory concentration (IC50) in test [1] and in test [2] (setting [3]) were 46 nM and 899 nM, respectively.
Take `CC(=O)c1cc(F)ccc1Oc1ccc(C#N)c(C(F)(F)F)c1` [Example 120, 4-(2-Acetyl-4-fluoro-phenoxy)-2-trifluoromethyl-benzonitrile]: the figures for the IC50 in test [1] (setting [4]) and in test [2] (setting [3]) were 222 nM and 367 nM, respectively.
For the compound `N#Cc1ccc(Oc2ccccc2C(F)(F)F)cc1Cl` [Example 64, 4-(2-Trifluoromethyl-phenoxy)-2-chloro-benzonitrile], the IC50 is 34 nM in test [1] and 842 nM in test [2] (setting [3]).
Consider `COc1cccc(F)c1Oc1ccc(C#N)cc1Cl` [Example 19, 3-Chloro-4-(2-fluoro-6-methoxy-phenoxy)-benzonitrile], for which the IC50 in test [1] was 28 nM; in test [2] (setting [5]), 52 nM.
Consider `CC(C)c1ccccc1Oc1ccc(C#N)c(Cl)c1` [Example 39, 2-Chloro-4-(2-isopropyl-phenoxy)-benzonitrile], for which the IC50 in test [1] worked out at 43 nM; in test [2] (setting [3]), 254 nM.
On the same counts, the results for `Cc1ccc(F)c(Oc2ccc(C#N)c(C(F)(F)F)c2)c1F` [Example 118, 4-(2,6-Difluoro-3-methyl-phenoxy)-2-trifluoromethyl-benzonitrile] are 76 nM and 249 nM.
As for `N#Cc1ccc(Oc2ccccc2C(N)=O)cc1Cl` [Example 8, 2-(3-Chloro-4-cyano-phenoxy)-benzamide], the IC50 in test [1] (setting [4]) was 222 nM; in test [2] (setting [3]), over 1000 nM.
With `N#Cc1ccc(Oc2ccc(O)cc2)cc1C(F)(F)F` [Example 80, 4-(4-Hydroxy-phenoxy)-2-trifluoromethyl-benzonitrile], the IC50 was found to be 207 nM in test [1] (setting [4]) and 62 nM in test [2] (setting [5]).
Regarding `Cc1ccc(C(C)C)c(Oc2ccc(C#N)c(Cl)c2)c1` [Example 49, 2-Chloro-4-(2-isopropyl-5-methyl-phenoxy)-benzonitrile], the results for the IC50 in test [1] and in test [2] (setting [3]) were 79 nM and 784 nM, respectively.
On the same counts, the results for `COc1ccccc1Oc1ccc(C#N)c(Cl)c1` [Example 42, 2-Chloro-4-(2-methoxy-phenoxy)-benzonitrile] are 2 nM and 387 nM.
For `Cc1cc(F)ccc1Oc1ccc(C#N)c(Cl)c1` [Example 60, 2-Chloro-4-(4-fluoro-2-methyl-phenoxy)-benzonitrile], the results for the IC50 in test [1] and in test [2] (setting [5]) were 48 nM and 72 nM, respectively.
As to `N#Cc1ccc(Oc2ccc(F)cc2)cc1Cl` [Example 52, 2-Chloro-4-(4-fluoro-phenoxy)-benzonitrile], the IC50 in test [1] (setting [4]) is 152 nM; in test [2] (setting [3]) it was 261 nM.
Consider `C=CCc1ccccc1Oc1ccc(C#N)c(Cl)c1` [Example 51, 4-(2-Allyl-phenoxy)-2-chloro-benzonitrile], for which the figures for the IC50 in test [1] and in test [2] (setting [3]) were 62 nM and 252 nM, respectively.
